Test results taken from US10556888B2, “Pyrazole compounds or salts thereof, preparation methods therefor, herbicidal compositions and use thereof” (QINGDAO KINGAGROOT CHEMICAL COMPOUNDS CO., LTD, priority 2015, dated 2020).

Tests used:
[1] = test system: main crop (wheat, corn, rice, soybean, cotton, oilseed, millet and sorghum); assay: Post-emergence test experiment, main crops (Table 2); type: in vivo; set-up: key: Level 10: completely dead; Level 9: above 90% growth inhibition rate; Level 8: above 80% growth inhibition rate; Level 7: above 70% growth inhibition rate; Level 6: above 60% growth inhibition rate; Level 5: above 50% growth inhibition rate; Level 4: above 30% growth inhibition rate; Level 3: above 20% growth inhibition rate; Level 2: above 10% growth inhibition rate; Level 1: above 1-10% growth inhibition rate; Level 0: no effect; conditions: 3 weeks after spraying, greenhouse
Procedure, shortened: (§1)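 Weed and crop seeds (wheat, corn, rice, soybean, cotton, oilseed, millet, sorghum) grown in soil in greenhouse; sprayed at 2-3 leaf stage, 2-3 weeks after sowing, with compound in acetone/Tween 80/water. Effects assessed after 3 weeks further greenhouse culture.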

[2] = test system: Monocotyledonous and dicotyledonous weed; assay: Post-emergence test experiment, weed control effect (Table 2); type: in vivo; set-up: key to weed control effect, Setaria viridis (level) / weed control effect, Rorippa indica (level) / weed control effect, Abutilon theophrasti (level) / weed control effect, Echinochloa crus-galli (level) / weed control effect, Digitaria sanguinalis (level): Level 10: completely dead; Level 9: above 90% growth inhibition rate; Level 8: above 80% growth inhibition rate; Level 7: above 70% growth inhibition rate; Level 6: above 60% growth inhibition rate; Level 5: above 50% growth inhibition rate; Level 4: above 30% growth inhibition rate; Level 3: above 20% growth inhibition rate; Level 2: above 10% growth inhibition rate; Level 1: above 1-10% growth inhibition rate; Level 0: no effect; conditions: 3 weeks after spraying, greenhouse
Procedure, shortened: as §1

For `CCOCc1c(S(C)(=O)=O)ccc(C(=O)c2c(C3CC3)nn(C(C)C)c2OC(=O)c2cn(C)nc2C)c1Cl` [Compound 96], the “effect on crop, corn (level)” value ([1]; 60 g/ha) was 0, the “effect on crop, rice (level)” value ([1]; 60 g/ha) was 4 (Level 4: above 30% growth inhibition rate) and the “effect on crop, wheat (level)” value ([1]; 60 g/ha) was 0. The “weed control effect, Abutilon theophrasti (level)” value ([2]; 60 g/ha) was 10, the “weed control effect, Bidens pilosa (level)” value ([2]; 60 g/ha) was 8 (Level 8: above 80% growth inhibition rate) and the “weed control effect, Digitaria sanguinalis (level)” value ([2]; 60 g/ha) was 8 (Level 8: above 80% growth inhibition rate). The “weed control effect, Echinochloa crus-galli (level)” value ([2]; 60 g/ha) was 10, the “weed control effect, Rorippa indica (level)” value ([2]; 60 g/ha) was 10 and the “weed control effect, Setaria viridis (level)” value ([2]; 60 g/ha) was 10.
For `Cc1cnn(Cc2c(S(C)(=O)=O)ccc(C(=O)c3cnn(C(C)C)c3OC(=O)c3cn(C)nc3C)c2Cl)c1` [Compound 97], the “effect on crop, corn (level)” value ([1]; 120 g/ha) was 0, the “effect on crop, rice (level)” value ([1]; 120 g/ha) was 0 and the “effect on crop, wheat (level)” value ([1]; 120 g/ha) was 0. For the same compound, the “weed control effect, Abutilon theophrasti (level)” value ([2]; 120 g/ha) was 6 (Level 6: above 60% growth inhibition rate), the “weed control effect, Bidens pilosa (level)” value ([2]; 120 g/ha) was 6 (Level 6: above 60% growth inhibition rate) and the “weed control effect, Digitaria sanguinalis (level)” value ([2]; 120 g/ha) was 1 (Level 1: above 1-10% growth inhibition rate). For the same compound, the “weed control effect, Echinochloa crus-galli (level)” value ([2]; 120 g/ha) was 10, the “weed control effect, Rorippa indica (level)” value ([2]; 120 g/ha) was 4 (Level 4: above 30% growth inhibition rate) and the “weed control effect, Setaria viridis (level)” value ([2]; 120 g/ha) was 3 (Level 3: above 20% growth inhibition rate).
In the case of `Cc1nn(C)cc1C(=O)Oc1c(C(=O)c2ccc(S(C)(=O)=O)c(COCC(F)(F)F)c2Cl)c(C)nn1C(C)C` [Compound 98], the “effect on crop, corn (level)” value ([1]; 30 g/ha) is reported as 1 (Level 1: above 1-10% growth inhibition rate), the “effect on crop, rice (level)” value ([1]; 30 g/ha) is reported as 5 (Level 5: above 50% growth inhibition rate) and the “effect on crop, wheat (level)” value ([1]; 30 g/ha) is reported as 0. The “weed control effect, Abutilon theophrasti (level)” value ([2]; 30 g/ha) was 5 (Level 5: above 50% growth inhibition rate), the “weed control effect, Bidens pilosa (level)” value ([2]; 30 g/ha) was 7 (Level 7: above 70% growth inhibition rate) and the “weed control effect, Digitaria sanguinalis (level)” value ([2]; 30 g/ha) was 8 (Level 8: above 80% growth inhibition rate). For the same compound, the “weed control effect, Echinochloa crus-galli (level)” value ([2]; 30 g/ha) was 10, the “weed control effect, Rorippa indica (level)” value ([2]; 30 g/ha) was 10 and the “weed control effect, Setaria viridis (level)” value ([2]; 30 g/ha) was 10.
In the case of `CCc1nn(C(C)C)c(OC(=O)c2cn(C)nc2C)c1C(=O)c1ccc(S(C)(=O)=O)c(Cn2cccn2)c1Cl` [Compound 99], the “effect on crop, corn (level)” value ([1]; 30 g/ha) is reported as 1 (Level 1: above 1-10% growth inhibition rate), the “effect on crop, rice (level)” value ([1]; 30 g/ha) is reported as 1 (Level 1: above 1-10% growth inhibition rate) and the “effect on crop, wheat (level)” value ([1]; 30 g/ha) is reported as 0. For the same compound, the “weed control effect, Abutilon theophrasti (level)” value ([2]; 30 g/ha) was 7 (Level 7: above 70% growth inhibition rate), the “weed control effect, Bidens pilosa (level)” value ([2]; 30 g/ha) was 7 (Level 7: above 70% growth inhibition rate) and the “weed control effect, Digitaria sanguinalis (level)” value ([2]; 30 g/ha) was 7 (Level 7: above 70% growth inhibition rate). The “weed control effect, Echinochloa crus-galli (level)” value ([2]; 30 g/ha) was 10, the “weed control effect, Rorippa indica (level)” value ([2]; 30 g/ha) was 10 and the “weed control effect, Setaria viridis (level)” value ([2]; 30 g/ha) was 8 (Level 8: above 80% growth inhibition rate).
For `Cc1nn(C)cc1C(=O)Oc1c(C(=O)c2ccc(S(C)(=O)=O)c(COCC3CCCO3)c2Cl)c(C)nn1C(C)C` (stereo not drawn) [Compound 101], the “effect on crop, corn (level)” value ([1]; 250 g/ha) was 1 (Level 1: above 1-10% growth inhibition rate), the “effect on crop, rice (level)” value ([1]; 250 g/ha) was 8 (Level 8: above 80% growth inhibition rate) and the “effect on crop, wheat (level)” value ([1]; 250 g/ha) was 0. For the same compound, the “weed control effect, Abutilon theophrasti (level)” value ([2]; 250 g/ha) was 7 (Level 7: above 70% growth inhibition rate), the “weed control effect, Bidens pilosa (level)” value ([2]; 250 g/ha) was 7 (Level 7: above 70% growth inhibition rate) and the “weed control effect, Digitaria sanguinalis (level)” value ([2]; 250 g/ha) was 6 (Level 6: above 60% growth inhibition rate). For the same compound, the “weed control effect, Echinochloa crus-galli (level)” value ([2]; 250 g/ha) was 9 (Level 9: above 90% growth inhibition rate), the “weed control effect, Rorippa indica (level)” value ([2]; 250 g/ha) was 10 and the “weed control effect, Setaria viridis (level)” value ([2]; 250 g/ha) was 7 (Level 7: above 70% growth inhibition rate).
